Source: the NIST ThermoML archive (doi:10.1016/j.jct.2008.09.012)
± gives the expanded uncertainty stated by the source.

Experiment: molar enthalpy of vaporization or sublimation
Details: 298.15 K; Liquid; Calvet microcalorimetry

Row | molar enthalpy [kcal/mol] | Structure (SMILES)
1 | 11.6 ± 0.526 | COc1ccc(F)cc1 [1-fluoro-4-methoxybenzene]
2 | 12.5 ± 0.526 | COc1ccccc1F [2-fluoroanisole]
3 | 11.5 ± 0.526 | COc1cccc(F)c1 [3-fluoroanisole]
